Key:
[1] = target: T1, Muscarinic acetylcholine receptor M5 (Homo sapiens, UniProt P08912); test: Displacement of [3H]NMS from human muscarinic M5 receptor expressed in CHO cells; assay type: cell-based
T1 sequence (P08912 whole entry): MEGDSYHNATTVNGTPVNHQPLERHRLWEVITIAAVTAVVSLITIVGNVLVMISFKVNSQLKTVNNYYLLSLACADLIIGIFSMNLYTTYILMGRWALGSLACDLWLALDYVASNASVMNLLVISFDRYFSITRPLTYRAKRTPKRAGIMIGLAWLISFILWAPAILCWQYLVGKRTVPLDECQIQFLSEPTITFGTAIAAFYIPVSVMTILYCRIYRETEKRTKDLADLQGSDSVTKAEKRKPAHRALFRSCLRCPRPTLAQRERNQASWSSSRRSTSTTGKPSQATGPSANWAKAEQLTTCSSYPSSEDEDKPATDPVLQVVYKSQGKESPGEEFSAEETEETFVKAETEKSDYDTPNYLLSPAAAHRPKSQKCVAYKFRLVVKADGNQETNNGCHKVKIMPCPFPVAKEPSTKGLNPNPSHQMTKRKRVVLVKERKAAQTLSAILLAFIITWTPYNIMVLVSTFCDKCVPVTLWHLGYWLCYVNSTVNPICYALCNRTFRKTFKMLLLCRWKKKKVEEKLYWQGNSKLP

[2] = Antagonist activity against muscarinic M3 receptor in guinea pig ileum assessed as effect on ileum tension; assay type: functional, Cavia porcellus
[3] = target: T2, Muscarinic acetylcholine receptor M4 (Homo sapiens, UniProt P08173); test: Displacement of [3H]NMS from human muscarinic M4 receptor expressed in CHO cells; assay type: cell-based
T2 sequence (P08173 whole entry): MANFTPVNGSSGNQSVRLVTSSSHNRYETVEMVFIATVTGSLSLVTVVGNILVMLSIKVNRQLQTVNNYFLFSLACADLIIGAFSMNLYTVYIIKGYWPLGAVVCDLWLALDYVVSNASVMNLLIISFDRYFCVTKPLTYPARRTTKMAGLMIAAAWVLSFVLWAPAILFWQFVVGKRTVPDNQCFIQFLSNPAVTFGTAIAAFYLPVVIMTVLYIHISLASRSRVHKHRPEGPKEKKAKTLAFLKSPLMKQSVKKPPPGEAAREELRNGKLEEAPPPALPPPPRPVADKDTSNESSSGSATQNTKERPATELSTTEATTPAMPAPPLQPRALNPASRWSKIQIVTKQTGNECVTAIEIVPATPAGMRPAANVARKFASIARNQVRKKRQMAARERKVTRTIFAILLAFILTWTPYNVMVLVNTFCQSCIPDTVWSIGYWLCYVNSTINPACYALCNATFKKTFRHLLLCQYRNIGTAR

[4] = target: T3, Muscarinic acetylcholine receptor M2 (Homo sapiens, UniProt P08172); test: Displacement of [3H]NMS from human muscarinic M2 receptor expressed in CHO cells; assay type: cell-based
T3 sequence (P08172 whole entry): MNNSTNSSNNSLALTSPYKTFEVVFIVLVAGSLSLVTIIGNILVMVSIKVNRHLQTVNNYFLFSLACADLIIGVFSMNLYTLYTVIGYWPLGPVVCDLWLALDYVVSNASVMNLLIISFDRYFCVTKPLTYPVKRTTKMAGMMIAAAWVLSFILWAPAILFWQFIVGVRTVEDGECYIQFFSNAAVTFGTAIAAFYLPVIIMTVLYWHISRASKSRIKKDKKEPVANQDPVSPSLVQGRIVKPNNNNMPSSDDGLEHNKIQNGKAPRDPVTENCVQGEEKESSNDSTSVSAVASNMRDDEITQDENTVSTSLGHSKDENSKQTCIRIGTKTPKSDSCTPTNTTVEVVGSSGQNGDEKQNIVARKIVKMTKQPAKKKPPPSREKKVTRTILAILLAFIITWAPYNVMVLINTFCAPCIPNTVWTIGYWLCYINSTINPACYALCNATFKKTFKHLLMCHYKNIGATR

[5] = target: Muscarinic acetylcholine receptor M3 (Homo sapiens, UniProt P20309); test: Displacement of [3H]NMS from human muscarinic M3 receptor expressed in CHO cells; assay type: cell-based
[6] = target: T4, Muscarinic acetylcholine receptor M1 (Homo sapiens, UniProt P11229); test: Displacement of [3H]NMS from human muscarinic M1 receptor expressed in CHO cells; assay type: cell-based
T4 sequence (P11229 whole entry): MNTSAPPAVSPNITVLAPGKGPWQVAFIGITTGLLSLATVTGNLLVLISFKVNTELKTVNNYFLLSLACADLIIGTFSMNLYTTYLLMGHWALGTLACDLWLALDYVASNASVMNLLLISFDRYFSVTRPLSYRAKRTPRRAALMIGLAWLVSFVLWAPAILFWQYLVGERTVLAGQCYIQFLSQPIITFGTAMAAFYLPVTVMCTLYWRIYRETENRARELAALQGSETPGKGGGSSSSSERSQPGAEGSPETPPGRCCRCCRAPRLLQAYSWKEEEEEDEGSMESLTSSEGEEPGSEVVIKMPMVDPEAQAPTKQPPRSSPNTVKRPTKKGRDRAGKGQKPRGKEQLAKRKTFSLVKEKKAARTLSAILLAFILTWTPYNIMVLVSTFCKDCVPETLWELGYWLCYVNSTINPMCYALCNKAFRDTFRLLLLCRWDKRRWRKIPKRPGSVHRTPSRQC

[7] = Antagonist activity against muscarinic M4 receptor in guinea pig lung strip assessed as effect on electrically-stimulated contraction; assay type: functional, Cavia porcellus
[8] = Antagonist activity against muscarinic M2 receptor in guinea pig atria assessed as effect on electrically-stimulated atria; assay type: functional, Cavia porcellus

Sequence of Muscarinic acetylcholine receptor M3 (P20309 whole entry): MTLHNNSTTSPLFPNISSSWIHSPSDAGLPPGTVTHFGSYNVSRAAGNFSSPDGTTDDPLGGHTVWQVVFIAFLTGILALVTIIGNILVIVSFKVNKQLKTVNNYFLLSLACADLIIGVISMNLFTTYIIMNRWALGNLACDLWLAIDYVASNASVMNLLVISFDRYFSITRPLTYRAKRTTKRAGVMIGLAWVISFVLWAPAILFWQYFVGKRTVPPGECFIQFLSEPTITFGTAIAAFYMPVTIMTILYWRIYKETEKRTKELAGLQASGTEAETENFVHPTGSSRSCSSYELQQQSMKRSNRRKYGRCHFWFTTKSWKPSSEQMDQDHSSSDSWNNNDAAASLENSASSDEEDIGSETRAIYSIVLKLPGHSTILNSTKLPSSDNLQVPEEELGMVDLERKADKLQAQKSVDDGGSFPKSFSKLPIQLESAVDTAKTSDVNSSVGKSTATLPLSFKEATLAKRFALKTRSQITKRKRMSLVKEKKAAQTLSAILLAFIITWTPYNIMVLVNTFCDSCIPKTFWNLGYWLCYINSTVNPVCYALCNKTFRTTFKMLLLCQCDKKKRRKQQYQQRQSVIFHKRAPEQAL

Row | Ki [1] | Ki [3] | Ki [4] | Ki [5] | Ki [6] | Structure (SMILES) | pKb [2] | pKb [7] | pKb [8]
1 | 331 nM | 603 nM | 550 nM | 324 nM | 155 nM | C[N+]1(C)CCC[C@H]1[C@H]1C[S+]([O-])[C@](c2ccccc2)(C2CCCCC2)O1.[I-] (stereo in doubt; (-)-14) | 6.68 | 5.24 | 6.03
2 | 339 nM | 316 nM | 39.8 nM | 282 nM | 110 nM | CN1CCC[C@@H]1[C@@H]1C[S+]([O-])C(c2ccccc2)(c2ccccc2)O1 (stereo in doubt; (+)-5) | 7.17 | 5.63 | 7.1
3 | 195 nM | 316 nM | 85.1 nM | 288 nM | 56.2 nM | C[N+]1(C)CCC[C@@H]1[C@@H]1C[S+]([O-])[C@](c2ccccc2)(C2CCCCC2)O1.[I-] (stereo in doubt; (-)-12) | 7.11 | 7.45 | 7.91
4 | 288 nM | 257 nM | 38 nM | 200 nM | 107 nM | CN1CCC[C@@H]1[C@@H]1C[S+]([O-])[C@@](c2ccccc2)(C2CCCCC2)O1 (stereo in doubt; (+)-9) | 7.59 | 6.16 | 7.72
5 | 182 nM | 282 nM | 69.2 nM | 263 nM | 53.7 nM | C[N+]1(C)CCC[C@@H]1[C@@H]1C[S+]([O-])C(c2ccccc2)(c2ccccc2)O1.[I-] (stereo in doubt; (-)-10) | 7.5 | 6.53 | 7.3
6 | 525 nM | 447 nM | 1020 nM | 389 nM | 155 nM | CN1CCC[C@H]1[C@H]1C[S+]([O-])[C@@](c2ccccc2)(C2CCCCC2)O1 (stereo in doubt; (+)-6) | 6.43 | <5 | 5.48
7 | 41.7 nM | 112 nM | 57.5 nM | 77.6 nM | 19.5 nM | C[N+]1(C)CCC[C@H]1[C@H]1C[S+]([O-])[C@](c2ccccc2)(C2CCCCC2)O1.[I-] (stereo in doubt; (-)-15) | 7.9 | 5.64 | 6.92
8 | 759 nM | 1510 nM | 1450 nM | 692 nM | 537 nM | CN1CCC[C@H]1[C@H]1C[S+]([O-])[C@](c2ccccc2)(C2CCCCC2)O1 (stereo in doubt; (-)-8) | 5.95 | 5.19 | 5.71
9 | 3.02 nM | 15.8 nM | 17.8 nM | 4.17 nM | 3.02 nM | C[N+]1(C)CCC[C@H]1[C@H]1C[S+]([O-])[C@@](c2ccccc2)(C2CCCCC2)O1.[I-] (stereo in doubt; (+)-13) | 8.67 | 6.37 | 7.81
10 | 141 nM | 95.5 nM | 74.1 nM | 34.7 nM | 21.9 nM | C[N+](C)(C)C[C@@H]1C[S@](=O)[C@@](c2ccccc2)(C2CCCCC2)O1.[I-] | 7.64 | 5.24 | 7.52
11 | 30.2 nM | 105 nM | 41.7 nM | 51.3 nM | 15.8 nM | C[N+]1(C)CCC[C@H]1[C@H]1C[S+]([O-])C(c2ccccc2)(c2ccccc2)O1.[I-] (stereo in doubt; (-)-11) | 7.89 | <5 | 6.93
12 | 14.1 nM | 19.1 nM | 21.4 nM | 6.92 nM | 6.92 nM | C[N+]1(C)CCC[C@@H]1[C@@H]1C[S+]([O-])[C@@](c2ccccc2)(C2CCCCC2)O1.[I-] (stereo in doubt; (+)-14) | 9 | 7.59 | 7.98
13 | 25.1 nM | 33.1 nM | 64.6 nM | 18.2 nM | 10 nM | CN1CCC[C@H]1[C@H]1C[S+]([O-])[C@@](c2ccccc2)(C2CCCCC2)O1 (stereo in doubt; (+)-7) | 7.96 | 5.2 | 7.56
14 | 224 nM | 302 nM | 77.6 nM | 162 nM | 93.3 nM | C[N+]1(C)CCC[C@@H]1[C@@H]1C[S+]([O-])[C@@](c2ccccc2)(C2CCCCC2)O1.[I-] (stereo in doubt; (+)-15) | 7.1 | 6.48 | 6.97
15 | 229 nM | 407 nM | 219 nM | 302 nM | 145 nM | CN1CCC[C@H]1[C@H]1C[S+]([O-])C(c2ccccc2)(c2ccccc2)O1 (stereo in doubt; (-)-5) | 6.99 | <5 | 6.42
16 | 30.2 nM | 93.3 nM | 66.1 nM | 24 nM | 38 nM | CN1CCC[C@@H]1[C@@H]1C[S+]([O-])[C@@](c2ccccc2)(C2CCCCC2)O1 (stereo in doubt; (+)-8) | 7.71 | <5 | 7.05
17 | 513 nM | 1020 nM | 562 nM | 468 nM | 110 nM | CN1CCC[C@H]1[C@H]1C[S+]([O-])C(c2ccccc2)(c2ccccc2)O1 (stereo in doubt; (+)-4) | 6.55 | 5.29 | 6
18 | 380 nM | 501 nM | 302 nM | 347 nM | 93.3 nM | CN1CCC[C@H]1[C@H]1C[S+]([O-])[C@](c2ccccc2)(C2CCCCC2)O1 (stereo in doubt; (-)-9) | 7.1 | 5.13 | 6.59
19 | 91.2 nM | 209 nM | 141 nM | 209 nM | 29.5 nM | C[N+]1(C)CCC[C@H]1[C@H]1C[S+]([O-])C(c2ccccc2)(c2ccccc2)O1.[I-] (stereo in doubt; (+)-10) | 6.95 | 5.54 | 7.2
20 | 58.9 nM | 42.7 nM | 4.17 nM | 42.7 nM | 14.1 nM | CN1CCC[C@@H]1[C@@H]1C[S+]([O-])[C@](c2ccccc2)(C2CCCCC2)O1 (stereo in doubt; (-)-7) | 8.71 | 6.92 | 9.37
